Assay results as given in paper PMC9374667 (Communications Biology, 2022).
Where “and” joins values, the source holds several entries; their conditions need not be identical. Equal entries are not always repeated.

Key:
[1] = pH of the solution after 24 hours of the dissolution test; format: physicochemical
Procedure: Solubilities were determined by adding excess sample to 30 mL different mediums, such as HCl solution, acetate buffer, phosphate buffer, SGF, FaSSIF and FeSSIF. The configuration of various buffer solutions is shown in Supplementary Table 2. After being shaken at 400 rpm at 37 °C for 0.5, 1, 2, and 24 h, 0.3 mL of suspension was sampled and centrifuged at 14,000 rpm for 8 min to isolate mother liquor, and then analyzed by HPLC after dilution. All samples were analyzed in triplicate. […]
into a 1000 mL flask followed by addition of about 800 mL of deionized water. The mixture is stirred until all solids are dissolved.
Add about 100 mL of 0.1 N HCl, check pH value with a pH meter and adjust the pH to 2.0 with HCl (1 N) or NaOH (1 N). Then dilute to the volume with deionized water.
* 1N sodium hydroxide: Weigh 8 g NaOH in a 200 mL plastic volumetric flask, add deionized water to volume and mix well. […]
phosphate and 3.093 g sodium chloride in a 500 mL volumetric flask, add about 0.450 L deionized water, and adjust the pH to 6.5 with 1N sodium hydroxide or 1 N hydrochloric acid. Make up to volume (0.5 […]
Step 2: Place and dissolve 1.120 g FaSSIF/FeSSIF/FaSSGF instant powder with 0.250 L of buffer (from step 1) in a 500 mL volumetric flask, then add buffer (from step 1) to volume, and mix well. […]
g sodium chloride in a 500 mL volumetric flask, add about 0.450 L deionized water, and adjust the pH to 5.0 with 1 N sodium hydroxide or 1 N hydrochloric acid. Make up to volume (500 mL) with
Step 2: Place and dissolve 5.600 g FaSSIF/FeSSIF/FaSSGF instant […]
0.750 L deionized water. Make up to volume (1000 mL) with deionized water and placed overnight.
(1 picture or pasted object on this page, not shown here)

[2] = tested on: db/db mice; assay: Body weight of db/db mice during 35-day treatment; format: in vivo; settings: db/db mice; for Average body weight gain: day 35, mean ± SD; for Body weight gain in 5 weeks: individual mice
Procedure: (§1) The lean wild type control and the db/db control mice were given equal vehicle volume (0.5% CMC-Na solution). All mice were monitored for food intake, body weight, and fasting blood glucose during the 35-day trial. Glucose tolerance test (GTT) and insulin resistance test (ITT) were performed at 4 and 5 weeks of treatment, respectively. Metabolic analysis was performed at 5 weeks of treatment. At the end of the study, blood samples were taken through the retroorbital venous sinus of mice, fat depots (brown fat, inguinal subcutaneous fat, epididymal fat, perirenal fat and mesenteric fat depot) were dissected, weighed, and immediately frozen in liquid nitrogen and stored at −80 °C until required. Weight of fat depots are expressed in percentage (fat depots weight /bodyweight * 100%).

[3] = tested on: db/db mice; assay: Fat depots weight (BAT, iWAT, eWAT; percentage of body weight); format: in vivo; set-up: key to BAT fat depot weight (Figure 4c): % of body weight (fat depot weight / body weight * 100%); settings: BJ 75mg/kg, db/db mice, individual mice 1-10
Procedure: as §1

CC(C)Cc1ccc(C(C)C(=O)[O-])cc1.COc1ccc2cc3[n+](cc2c1OC)CCc1cc2c(cc1-3)OCO2.O.O.O.O [BJ, berberine-ibuprofen]
pH of the solution after 24 hours ([1]; Acetate buffer, blank vehicle 4.54): 4.82 | pH of the solution after 24 hours ([1]; CMC-Na, blank vehicle 6.51): 6.70 | pH of the solution after 24 hours ([1]; FaSSIF-v1, blank vehicle 6.51): 5.50 | pH of the solution after 24 hours ([1]; FeSSIF-v1, blank vehicle 5.04): 5.17 | pH of the solution after 24 hours ([1]; HCl solution, blank vehicle 1.08): 1.03 | pH of the solution after 24 hours ([1]; Phosphate buffer, blank vehicle 6.84): 6.90 | pH of the solution after 24 hours ([1]; SGF, blank vehicle 2.03): 5.38 | Body weight ([2]; 75 mg/kg gavage once per day, day 1, individual mice, 75 mg/kg): 42 grams and 38 grams and 33 grams and 41 grams and 34 grams and 40 grams | Body weight ([2]; 75 mg/kg gavage once per day, day 4, individual mice, 75 mg/kg): 44 grams and 40 grams and 36 grams and 41 grams and 39 grams and 42 grams | Body weight ([2]; 75 mg/kg gavage once per day, day 7, individual mice, 75 mg/kg): 45 grams and 40 grams and 41 grams and 35 grams and 43 grams and 36 grams | Body weight ([2]; 75 mg/kg gavage once per day, day 10, individual mice, 75 mg/kg): 43 grams and 40 grams and 42 grams and 35 grams and 44 grams and 36 grams | Body weight ([2]; 75 mg/kg gavage once per day, day 13, individual mice, 75 mg/kg): 45 grams and 42 grams and 43 grams and 35 grams and 37 grams and 41 grams and 44 grams | Body weight ([2]; 75 mg/kg gavage once per day, day 16, individual mice, 75 mg/kg): 44 grams and 42 grams and 37 grams and 46 grams and 39 grams | Body weight ([2]; 75 mg/kg gavage once per day, day 19, individual mice, 75 mg/kg): 47 grams and 42 grams and 46 grams and 38 grams and 48 grams and 37 grams and 44 grams and 45 grams and 41 grams | Body weight ([2]; 75 mg/kg gavage once per day, day 22, individual mice, 75 mg/kg): 49 grams and 44 grams and 48 grams and 39 grams and 38 grams and 46 grams and 47 grams and 42 grams | Body weight ([2]; 75 mg/kg gavage once per day, day 25, individual mice, 75 mg/kg): 50 grams and 45 grams and 49 grams and 40 grams and 48 grams and 38 grams and 46 grams and 42 grams | Body weight ([2]; 75 mg/kg gavage once per day, day 28, individual mice, 75 mg/kg): 50 grams and 46 grams and 40 grams and 49 grams and 45 grams and 47 grams and 41 grams | Body weight ([2]; 75 mg/kg gavage once per day, day 31, individual mice, 75 mg/kg): 53 grams and 47 grams and 52 grams and 40 grams and 50 grams and 41 grams and 43 grams | Body weight ([2]; 75 mg/kg gavage once per day, day 34, individual mice, 75 mg/kg): 52 grams and 47 grams and 44 grams and 51 grams and 43 grams and 50 grams and 45 grams and 48 grams | Average body weight gain ([2]; 75 mg/kg gavage once per day): 9.4 ± 2.7 g | Body weight gain in 5 weeks ([2]; 75 mg/kg gavage once per day, 75 mg/kg): 7 grams and 10 grams and 9 grams and 14 grams and 11 grams | Body weight ([2]; 150 mg/kg gavage once per day, day 1, individual mice, 150 mg/kg): 38 grams and 44 grams | Body weight ([2]; 150 mg/kg gavage once per day, day 4, individual mice, 150 mg/kg): 39 grams | Body weight ([2]; 150 mg/kg gavage once per day, day 7, individual mice, 150 mg/kg): 39 grams | Body weight ([2]; 150 mg/kg gavage once per day, day 10, individual mice, 150 mg/kg): 38 grams | Body weight ([2]; 150 mg/kg gavage once per day, day 13, individual mice, 150 mg/kg): 40 grams | Body weight ([2]; 150 mg/kg gavage once per day, day 16, individual mice, 150 mg/kg): 39 grams | Body weight ([2]; 150 mg/kg gavage once per day, day 19, individual mice, 150 mg/kg): 39 grams | Body weight ([2]; 150 mg/kg gavage once per day, day 22, individual mice, 150 mg/kg): 37 grams | Body weight ([2]; 150 mg/kg gavage once per day, day 25, individual mice, 150 mg/kg): 37 grams and 44 grams | Body weight ([2]; 150 mg/kg gavage once per day, day 28, individual mice, 150 mg/kg): 38 grams and 43 grams | Body weight ([2]; 150 mg/kg gavage once per day, day 31, individual mice, 150 mg/kg): 40 grams and 46 grams | Body weight ([2]; 150 mg/kg gavage once per day, day 34, individual mice, 150 mg/kg): 43 grams and 48 grams | Average body weight gain ([2]; 150 mg/kg gavage once per day): 5.2 ± 0.9 g | Body weight gain in 5 weeks ([2]; 150 mg/kg gavage once per day, 150 mg/kg): 6 grams and 5 grams and 4 grams | Body weight compared with vehicle ([2]; 5 weeks, BJ 75 and 150 mg/kg, BBR 150 mg/kg, Ibu 150 mg/kg): lower body weight than the db/db mice treated with the vehicle | BAT fat depot weight (Figure 4c) [3]: 1.4827 and 0.5576 and 2.7679 and 1.5898 and 1.8729 and 1.268 and 0.7299 and 1.4681 and 1.4209 and 1.9195 | eWAT fat depot weight (Figure 4c) ([3]; in %): 2.9499 and 3.004 and 3.3073 and 3.0683 and 2.8654 and 1.9039 and 2.9972 and 3.1786 and 2.5863 and 2.885 | iWAT fat depot weight (Figure 4c) ([3]; in %): 2.9834 and 2.2193 and 4.5703 and 3.1934 and 4.0303 and 2.1465 and 2.6777 and 3.7948 and 2.2136 and 4.2859
